The target of one test is T1, 6×His-IKKβ(1-669) EE (Homo sapiens, UniProt O14920, S177E/S181E).
T1 construct: a nearly full-length (residues 1-669) and constitutively active (S177E/S181E) mutant construct of human IKKβ; made in house; host or cells: Sf21 insect cells (baculovirus)
T1 sequence (O14920 1-669 S177E/S181E): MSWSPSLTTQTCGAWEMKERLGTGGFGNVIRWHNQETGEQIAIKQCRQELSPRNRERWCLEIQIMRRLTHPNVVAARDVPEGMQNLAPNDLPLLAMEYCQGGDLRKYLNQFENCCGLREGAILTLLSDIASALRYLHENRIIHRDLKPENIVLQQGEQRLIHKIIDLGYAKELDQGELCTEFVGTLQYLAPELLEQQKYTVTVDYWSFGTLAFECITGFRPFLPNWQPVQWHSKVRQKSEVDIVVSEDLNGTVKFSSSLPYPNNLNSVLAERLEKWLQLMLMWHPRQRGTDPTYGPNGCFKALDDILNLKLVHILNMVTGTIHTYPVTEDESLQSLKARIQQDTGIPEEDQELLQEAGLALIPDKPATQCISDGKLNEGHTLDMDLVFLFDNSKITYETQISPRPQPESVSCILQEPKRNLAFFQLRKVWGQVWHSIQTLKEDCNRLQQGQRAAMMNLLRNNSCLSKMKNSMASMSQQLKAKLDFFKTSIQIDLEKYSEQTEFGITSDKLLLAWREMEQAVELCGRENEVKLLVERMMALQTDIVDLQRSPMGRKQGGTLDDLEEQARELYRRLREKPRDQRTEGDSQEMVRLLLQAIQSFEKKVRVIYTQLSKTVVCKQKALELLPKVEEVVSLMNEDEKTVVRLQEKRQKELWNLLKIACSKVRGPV
The test can be described thus: MBP-pulldown of recombinant IKKβ by MBP-peptide fusions. Particulars: 0.3 μM IKKβ, Western blot. It is filed as binding. On the procedure:
Experiments were performed in PD buffer (20 mM Tris pH 8.0, 150 mM NaCl, 2 mM DTT). For each experiment, 10 μl of amylose resin (dry bead volume) coupled to MBP-fusion constructs were incubated with […] of purified 6×His-IKKα(10-667) EE and 6×His-IKKβ (1-669) EE constructs adjusted at a concentration of 0.3 μM for 2 hours at 4° C. After two quick washing steps with PD buffer, complexes were eluted by incubation with 20 μl of the same buffer supplemented with 20 mM maltose for 15 minutes at 4° C. After mild centrifugation, supernatants were recovered and migrated onto two separate 10% SDS-PAGE gels. One gel was used for Western blot analysis to detect His-IKKα or His-IKKβ using and anti-6×His antibody (Sigma, #SAB4301134), the other for Coomassie staining to detect MBP-fusion proteins. Quantification of band intensity was done using the Image J software.

A further test deals with T2, IKKα/β heterodimer (Homo sapiens, UniProt O14920+O15111, S176E/S177E/S180E/S181E).
T2 construct: co-expression of 6×His-IKKβ(1-669) EE and Strep-IKKα(10-667) EE constructs in insect cells; Strep (followed by TEV site) (N); 6×His (followed by TEV site) (N); made in house; host or cells: Sf21 insect cells (co-infection with two baculoviruses)
T2 sequence (O15111 10-667 S176E/S180E): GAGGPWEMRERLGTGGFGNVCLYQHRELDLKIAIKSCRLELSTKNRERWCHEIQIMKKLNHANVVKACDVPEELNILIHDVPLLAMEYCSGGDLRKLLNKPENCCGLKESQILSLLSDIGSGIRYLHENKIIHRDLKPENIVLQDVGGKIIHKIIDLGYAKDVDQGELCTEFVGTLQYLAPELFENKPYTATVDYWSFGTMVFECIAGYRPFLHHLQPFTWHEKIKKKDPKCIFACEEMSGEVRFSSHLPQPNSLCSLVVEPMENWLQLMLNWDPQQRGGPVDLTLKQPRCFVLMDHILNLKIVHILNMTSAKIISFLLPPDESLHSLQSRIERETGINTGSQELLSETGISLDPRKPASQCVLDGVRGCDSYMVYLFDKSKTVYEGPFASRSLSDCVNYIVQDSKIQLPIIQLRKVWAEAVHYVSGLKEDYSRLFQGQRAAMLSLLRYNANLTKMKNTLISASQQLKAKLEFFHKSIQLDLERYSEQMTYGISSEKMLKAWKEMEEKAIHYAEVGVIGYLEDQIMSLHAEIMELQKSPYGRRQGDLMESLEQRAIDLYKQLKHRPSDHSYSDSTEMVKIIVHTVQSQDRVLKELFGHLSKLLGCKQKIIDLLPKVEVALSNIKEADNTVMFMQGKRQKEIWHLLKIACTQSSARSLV
T2 sequence (O14920 1-669 S177E/S181E): T1 sequence (O14920 1-669 S177E/S181E)
As to the kind of experiment: MBP-pulldown of reconstituted IKKα/β heterodimer. It is filed as binding. On the procedure: IKKα/β heterodimer. SF21 cells expressing the Strep-IKKα(10-667) EE and 6×His-IKKβ(1-669) EE proteins were resuspended in lysis buffer (100 mM Tris-HCl pH 8.0, 150 mM NaCl, 10% glycerol, 2 mM DTT, 2 μg/ml DNaseI, 0.2 μg/ml RNAse, Roche Complete protease inhibitor cocktail) and lysed by mild sonication. Lysates were centrifuged at 14500 g for 45 minutes at 4° C. The supernatants were applied by gravity flow to Strep-Tactin XT 4F resin (IBA-lifesciences) pre-equilibrated in wash buffer (100 mM Tris-HCl pH 8, 150 mM NaCl, 10% glycerol, 1 mM EDTA, and 2 mM DTT). The resin was extensively washed with wash buffer and the proteins eluted with elution buffer (100 mM Tris-HCl pH 8, 150 mM NaCl, 10% glycerol, 2 mM DTT, and 50 mM biotin). The eluate was then applied to Ni^2+-NTA resin, which was washed and eluted as described above for the IKK homodimers. IKKα/β heterodimer samples were then concentrated and incubated in presence of 1 mM ATP plus additives (see above) for 1 hour on ice. Finally, samples were purified by gel filtration chromatography using a Superdex 200 10/30 column (GE Healthcare) pre-equilibrated in gel filtration buffer 1 (20 mM Tris-HCl PH 8.0, 150 mM NaCl, 5% Glycerol, 2 mM DTT).
Experiments were performed in PD buffer (20 mM Tris pH 8.0, 150 mM NaCl, 2 mM DTT). […] Quantification of band intensity was done using the Image J software. […]

Residues, ends and D or L forms follow the SMILES beside them.

For `CC(C)C[C@H](NC(=O)[C@@H](NC(=O)[C@H](CC(C)C)NC(=O)[C@H](CCCNC(=N)N)NC(=O)[C@H](CCC(N)=O)NC(=O)CNC(=O)CNC(=O)[C@H](Cc1ccccc1)NC(=O)[C@@H](NC(=O)[C@H](CC(C)C)NC(=O)[C@H](CC(=O)O)NC(=O)[C@H](CC(=O)O)NC(=O)[C@H](Cc1ccc(O)cc1)NC(=O)[C@@H]1CCCN1C(=O)[C@H](CC(C)C)NC(=O)[C@H](CCC(=O)O)NC(=O)[C@H](CC(=O)O)NC(=O)[C@H](CCC(=O)O)NC(=O)[C@@H](NC(=O)[C@H](Cc1ccccc1)NC(=O)[C@@H](N)CCC(=O)O)[C@@H](C)O)C(C)C)[C@@H](C)O)C(=O)O` [IkBα pep C308L] (H-EFTEDELPYDDLVFGGQRLTL-OH; N-terminus and C-terminus assumed), at 6×His-IKKβ(1-669) EE, the “interaction with IKKβ by pulldown” value was “clearly enhance binding to IKKβ”.

For the compound `CC(C)C[C@H](NC(=O)[C@@H](NC(=O)[C@H](CC(C)C)NC(=O)[C@H](CCCNC(=N)N)NC(=O)[C@H](CCC(N)=O)NC(=O)CNC(=O)CNC(=O)[C@H](Cc1ccccc1)NC(=O)[C@@H](NC(=O)[C@H](CS)NC(=O)[C@H](CC(=O)O)NC(=O)[C@H](CC(=O)O)NC(=O)[C@H](Cc1ccc(O)cc1)NC(=O)[C@@H]1CCCN1C(=O)[C@H](CC(C)C)NC(=O)[C@H](CCC(=O)O)NC(=O)[C@H](CC(=O)O)NC(=O)[C@H](CCC(=O)O)NC(=O)[C@@H](NC(=O)[C@H](Cc1ccccc1)NC(=O)[C@@H](N)CCC(=O)O)[C@@H](C)O)C(C)C)[C@@H](C)O)C(=O)O` [IκBα pep] (H-EFTEDELPYDDCVFGGQRLTL-OH; N-terminus and C-terminus assumed), on IKKα/β heterodimer, the “binding of IKKα/β heterodimer by pulldown” value was “efficiently binds”.

These data come from patent publication US20260265321A1, “PEPTIDE AND POLYPEPTIDE INHIBITING THE NF-KB SIGNALING PATHWAY” (Centre National de la Recherche Scientifique, priority 2023, published 2026).
